# Counter-ions that a name gives are not always drawn.
# Columns and labels:
# [1] = system: gastric cancer cell line Hs746T; assay: Cancer cell proliferation inhibitory test (SRB or MTS assay, 72 hours); type: cell-based; settings: Homo sapiens, cancer cell (Hs746T) proliferation inhibition, culturing with compound for 72 hours
# Method: The drug used in the test was diluted to a desired concentration as a test medium, and the final concentration of dimethyl sulfoxide was 0.5% or less.
# All the cancer cell lines used in the test originated from the human body, and gastric cancer cell lines Hs746T and MKN-45 were used.
# 5×10^3 cells of Hs746T were dispensed to each well of the 96-well flat bottom micro-plate. MKN-45 was dispensed at 1×10^4 cells. The cells were cultured for 24 hours, so that the cells adhered to the bottom, and then the culture liquid was removed. The culture liquid containing each of the compounds of the present invention was added, followed by culturing for 72 hours. After the culturing with the compound was completed, the cytotoxicity was measured using protein stain reagent SRB or MTS assay.
# Specifically, after the culturing with the compound of the present invention was completed, the cultured liquid was removed. Each well was treated with a cool TCA solution, and allowed to stand at 4° C. for 1 hour to fix cells. The TCA solution was removed, followed by drying at room temperature, and then a stain solution containing 0.4% SRB dissolved in 1% acetic acid solution was added, and then the mixture was allowed to stand for 30 minutes to stain cells. […] The absorbance of each well was measured at a wavelength range of 520 nm using an Eliza reader (micro-plate reader).
# The drug cytotoxicity was measured from the OD values for the well added without the drug (C), each well added with the drug (T), and the well initially added with the drug (Tz): [(T−Tz)/(C−Tz)]×100 for […]; or [(T−Tz)/(Tz)]×100 for Tz>T.
# The cancer cell inhibitory activity measurement using MTS assay was conducted as follows. Specifically, after the culturing with the compound of the present invention was completed, the PMS solution and MTS solution constituting the CellTiter 96® AQueous Non-Radioactive Cell Proliferation Assay product from Promega Co. were mixed, and 20 μL was put into each well. After the cells were placed in an incubator for 4 hours, and then taken out and allowed to stand at room temperature for 10 minutes.
# c-Met enzyme = c-Met enzyme (Homo sapiens (Human), UniProt P08581); assay: c-Met kinase inhibitory activity (DELFIA time-resolved fluorescence); type: biochemical; settings: c-Met kinase activity reduced to 50%
# Chain of c-Met enzyme (P08581 25-1390): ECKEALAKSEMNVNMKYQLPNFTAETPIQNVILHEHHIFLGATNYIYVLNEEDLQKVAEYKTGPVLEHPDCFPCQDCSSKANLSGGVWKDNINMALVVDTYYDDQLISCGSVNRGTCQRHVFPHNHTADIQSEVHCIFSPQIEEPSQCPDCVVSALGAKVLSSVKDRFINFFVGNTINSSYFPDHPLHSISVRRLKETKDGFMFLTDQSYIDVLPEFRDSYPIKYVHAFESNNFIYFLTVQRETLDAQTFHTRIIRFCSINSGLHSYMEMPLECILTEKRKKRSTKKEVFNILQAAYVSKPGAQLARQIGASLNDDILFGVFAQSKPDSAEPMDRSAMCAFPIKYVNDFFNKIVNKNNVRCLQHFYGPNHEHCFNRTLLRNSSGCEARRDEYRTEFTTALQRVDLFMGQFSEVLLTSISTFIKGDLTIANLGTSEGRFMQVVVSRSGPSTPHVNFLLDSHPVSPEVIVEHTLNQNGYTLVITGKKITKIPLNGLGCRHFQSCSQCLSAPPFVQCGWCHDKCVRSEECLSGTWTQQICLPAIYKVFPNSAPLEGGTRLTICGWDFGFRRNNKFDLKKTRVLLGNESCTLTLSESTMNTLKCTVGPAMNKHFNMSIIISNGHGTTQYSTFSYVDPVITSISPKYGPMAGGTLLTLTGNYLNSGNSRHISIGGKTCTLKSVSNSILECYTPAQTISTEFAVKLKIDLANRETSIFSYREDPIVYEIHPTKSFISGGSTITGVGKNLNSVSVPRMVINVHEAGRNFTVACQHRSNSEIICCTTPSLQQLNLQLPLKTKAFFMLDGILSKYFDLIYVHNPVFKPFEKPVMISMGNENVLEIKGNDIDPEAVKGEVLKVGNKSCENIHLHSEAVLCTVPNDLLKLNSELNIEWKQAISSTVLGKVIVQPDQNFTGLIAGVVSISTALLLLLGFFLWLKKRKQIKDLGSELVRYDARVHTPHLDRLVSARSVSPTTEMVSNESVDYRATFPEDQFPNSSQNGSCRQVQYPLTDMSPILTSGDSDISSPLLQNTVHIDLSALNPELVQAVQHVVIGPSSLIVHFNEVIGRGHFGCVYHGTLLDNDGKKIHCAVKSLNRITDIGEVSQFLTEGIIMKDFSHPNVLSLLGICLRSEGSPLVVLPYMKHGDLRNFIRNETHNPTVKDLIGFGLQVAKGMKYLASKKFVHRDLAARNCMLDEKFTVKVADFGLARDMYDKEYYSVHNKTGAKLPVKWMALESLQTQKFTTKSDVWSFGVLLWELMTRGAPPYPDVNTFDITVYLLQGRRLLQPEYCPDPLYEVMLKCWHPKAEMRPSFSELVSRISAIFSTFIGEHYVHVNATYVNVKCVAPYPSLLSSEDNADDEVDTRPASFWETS
# Method: The c-Met kinase inhibitory activity was analyzed using dissociation enhanced lanthanide fluoro-immunoassay (DELFIA, Perkin Elmer), which is a kind of time-resolved fluorescence (TRF). […] of the compound prepared in the present invention, as a test compound, was put in a Greiner 96-well V-shaped bottom plate, and a tyrosin kinase buffer ([…]) mixed with a c-Met enzyme was added thereto, and then the enzyme and the test compound were stirred for 15 minutes, followed by culturing. An ATP solution ([…]) was added thereto to proceed with a kinase reaction at room temperature for 30 minutes, and then a 50 mM […] solution (EDTA, […]) was added to stop the reaction. After that, the reaction mixture was transferred to a plate coated with Streptavidin, followed by culturing under shaking. After 2 hours, the cultured material was washed three times with a PBS-T buffer (PBS 0.05% Tween 20).
# The europium-labeled anti-phosphotyrosine antibody was diluted to 1:[…] of the diluent was added per well, followed by culturing under shaking. After 1 hour, the cultured material was washed three times with a PBS-T buffer (PBS 0.05% Tween 20).
Compound,IC50 [1] [nM],IC50 (c-Met enzyme) [nM]
"N#Cc1cc(-c2cnc3nnn(C[C@@H]4CN(c5ncc(C6=CCNCC6)cn5)CCO4)c3n2)ccc1F [Chemical formula 30, (S)-2-fluoro-5-(1-((4-(5-(1,2,3,6-tetrahydropyridin-4-yl)pyrimidin-2-yl)morpholine-2-yl)methyl)-1H-[1,2,3]triazolo[4,5-b]pyrazin-6-yl)benzonitrile]",0.11,2
"Cn1cc(-c2cnc3nnn(C[C@@H]4CN(c5ncc(C6CCN(CCO)CC6)cn5)CCO4)c3n2)cn1 [Chemical formula 21, (S)-2-(4-(2-(2-((6-(1-methyl-1H-pyrazol-4-yl)-1H-[1,2,3]triazolo[4,5-b]pyrazin-1-yl)methyl)morpholino)pyrimidin-5-yl)piperidin-1-yl)ethanol]",5.6,5
"Cn1cc(-c2cnc3nnn(C[C@@H]4CN(c5ncc(-c6ccc(CN7CCOCC7)cc6)cn5)CCO4)c3n2)cn1 [Chemical formula 18, (S)-2-((6-(1-methyl-1H-pyrazol-4-yl)-1H-[1,2,3]triazolo[4,5-b]pyrazin-1-yl)methyl)-4-(5-(4-(morpholinomethyl)phenyl)pyrimidin-2-yl)morpholine]",9.6,5
"N#Cc1cc(-c2cnc3nnn(C[C@@H]4CN(c5ncc(-c6cnn(CCO)c6)cn5)CCO4)c3n2)ccc1F [Chemical formula 32, (S)-2-fluoro-5-(1-((4-(5-(1-(2-hydroxyethyl)-1H-pyrazol-4-yl)pyrimidin-2-yl)morpholine-2-yl)methyl)-1H-[1,2,3]triazolo[4,5-b]pyrazin-6-yl)benzonitrile]",0.14,1
"Cn1cc(-c2cnc3nnn(CC4CCCN(c5ncc(-c6cnn(C7CCNCC7)c6)cn5)C4)c3n2)cn1 (stereo not shown) [Chemical formula 37, 6-(1-methyl-1H-pyrazol-4-yl)-1-((1-(5-(1-(piperidin-4-yl)-1H-pyrazol-3-yl)pyrimidin-2-yl)piperidin-3-yl)methyl)-1H-[1,2,3]triazolo[4,5-b]pyrazinehydrochloride]",1.3,2
"Cn1cc(-c2cnc3nnn(C[C@@H]4CN(c5ncc(-c6cnn(CCO)c6)cn5)CCO4)c3n2)cn1 [Chemical formula 11, (S)-2-(4-(2-(2-((6-(1-methyl-1H-pyrazol-4-yl)-1H-[1,2,3]triazolo[4,5-b]pyrazin-1-yl)methyl)morpholino)pyrimidin-5-yl)-1H-pyrazol-1-yl)ethanol hydrochloride]",0.93,3
"Cn1cc(-c2cnc3nnn(C[C@@H]4CN(c5ncc(-c6ccc(OCCN7CCOCC7)c(F)c6)cn5)CCO4)c3n2)cn1 [Chemical formula 13, (S)-4-(5-(3-fluoro-4-(2-morpholinoethoxy)phenyl)pyrimidin-2-yl)-2-((6-(1-methyl-1H-pyrazol-4-yl)-1H-[1,2,3]triazolo[4,5-b]pyrazin-1-yl)methyl)morpholine]",0.86,15
"CN1CC=C(c2cnc(N3CCO[C@H](Cn4nnc5ncc(-c6cnn(C)c6)nc54)C3)nc2)CC1 [Chemical formula 10, (S)-4-(5-(1-methyl-1,2,3,6-tetrahydropyridin-4-yl)pyrimidin-2-yl)-2-((6-(1-methyl-1H-pyrazol-4-yl)-1H-[1,2,3]triazolo[4,5-b]pyrazin-1-yl)methyl)morpholine]",1.1,4
"Cn1cc(-c2cnc3nnn(CC4CCCN(c5ncc(C6=CCNCC6)cn5)C4)c3n2)cn1 (stereo not shown) [Chemical formula 33, 6-(1-methyl-1H-pyrazol-4-yl)-1-((1-(5-(1,2,3,6-tetrahydropyridin-4-yl)pyrimidin-2-yl)piperidin-3-yl)methyl)-1H-[1,2,3]triazolo[4,5-b]pyrazinehydrochloride]",9.5,3
"Cn1cc(-c2cnc3nnn(C[C@@H]4CN(c5ncc(-c6ccc(OCCN7CCOCC7)cc6)cn5)CCO4)c3n2)cn1 [Chemical formula 14, (S)-2-((6-(1-methyl-1H-pyrazol-4-yl)-1H-[1,2,3]triazolo[4,5-b]pyrazin-1-yl)methyl)-4-(5-(4-(2-morpholinoethoxy)phenyl)pyrimidin-2-yl)morpholine]",4.1,14
"Cn1cc(-c2cnc3nnn(C[C@@H]4CN(c5ncc(C6=CCNCC6)cn5)CCO4)c3n2)cn1 [Chemical formula 9, (S)-2-((6-(1-methyl-1H-pyrazol-4-yl)-1H-[1,2,3]triazolo[4,5-b]pyrazin-1-yl)methyl)-4-(5-(1,2,3,6-tetrahydropyridin-4-yl)pyrimidin-2-yl)morpholine hydrochloride]",0.95,3

# From patent US9403831B2, “Triazolopyrazine derivative and use thereof” (KOREA RESEARCH INSTITUTE OF CHEMICAL TECHNOLOGY, priority 2013, dated 2016)
